From PubChem BioAssay (NCI)
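Protocol summary: plate cells (96-well), add compound at 5 concentrations, incubate 48 h, interpolate endpoints linearly. GI50 marks 50% less growth. TGI denotes the concentration required for complete inhibition of growth.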

What was measured:
Assay in all cases: growth of human tumour cells (NCI), 48 h
MDA-MB-435 = test system: MDA-MB-435
SF-295 CNS = test system: SF-295 CNS
LOX IMVI melanoma = test system: LOX IMVI melanoma
786-0 renal = test system: 786-0 renal
HL-60(TB) leukemia = test system: HL-60(TB) leukemia
RXF 393 renal = test system: RXF 393 renal
UACC-62 melanoma = test system: UACC-62 melanoma
MALME-3M melanoma = test system: MALME-3M melanoma
SN12C renal = test system: SN12C renal
COLO 205 colon = test system: COLO 205 colon

| Structure (SMILES) | GI50 (MDA-MB-435) [nM] | TGI (MDA-MB-435) [nM] | GI50 (SF-295 CNS) [nM] | GI50 (LOX IMVI melanoma) [nM] | TGI (LOX IMVI melanoma) [nM] | GI50 (786-0 renal) [nM] | TGI (786-0 renal) [µM] | GI50 (HL-60(TB) leukemia) [nM] | TGI (HL-60(TB) leukemia) [nM] | GI50 (RXF 393 renal) [nM] | TGI (RXF 393 renal) [nM] | GI50 (UACC-62 melanoma) [nM] | TGI (UACC-62 melanoma) [µM] | GI50 (MALME-3M melanoma) [nM] | TGI (MALME-3M melanoma) [µM] | GI50 (SN12C renal) [nM] | TGI (SN12C renal) [µM] | GI50 (COLO 205 colon) [nM] | TGI (COLO 205 colon) [µM] | TGI (SF-295 CNS) [µM] |
| --- | --- | --- | --- | --- | --- | --- | --- | --- | --- | --- | --- | --- | --- | --- | --- | --- | --- | --- | --- | --- |
| COc1ccc(C2CC(c3ccc(OC)c(OC)c3)=NN2C(=O)c2cc(OC)c(OC)c(OC)c2)cc1 (stereo unspecified) | 409 | 2020 | 426 | 2470 | > 100000 | 2710 | > 100 | 2400 | > 32000 | 344 | 3050 | 1390 | > 100 | > 91300 | > 100 | 5710 | > 100 | 2810 | > 28 |  |
| O=C1/C(=C/c2ccc([N+](=O)[O-])s2)Oc2ccc(Cl)cc21 | 457 | 1550 | 999 | 239 | 598 | 887 | 3.21 | 423 | 2150 | 375 | 1110 | 271 | 0.771 | 526 | 1.38 | 593 | 1.79 | 527 | 1.36 | 2.98 |
| COc1c(C)cnc(Cn2cnc3c(Cl)nc(N)nc32)c1C | 179 | 40100 | 94.8 | 290 | 4050 | 937 | > 100 | 245 |  | 799 | > 100000 | 301 | 6.95 | 380 | 58.3 | 336 | > 100 | 218 |  |  |
| CCCCc1ccc(C(N)=O)nc1 | > 100000 | > 100000 | > 100000 | > 100000 | > 100000 | > 100000 | > 100 | > 100000 | > 100000 | > 100000 | > 100000 | > 100000 | > 100 | > 100000 | > 100 | > 100000 | > 100 | > 100000 | > 100 | > 100 |
| CN1CCN(Cc2ccc(NC(=O)c3cncc(C#Cc4c(N)ncc5ccc(F)cc45)c3)cc2C(F)(F)F)CC1 | 180 | 876 | 4370 | 303 | 1050 | 911 | 1.81 | 75.8 | 1980 | 642 | 1390 | 640 | 1.81 | 166 | 0.743 | 937 | 5.3 | 206 | 3.32 | 13 |
